Results from ChEMBL document CHEMBL3046740, “Lonazolac analogues: molecular modeling, synthesis, and in vivo anti-inflammatory activity” (2009).

Tested on: Rattus norvegicus
Experiment: Anti-inflammatory activity in Rattus norvegicus albino (rat) assessed as inhibition of carrageenan-induced paw edema at 50 mg/kg, po administered 30 min before carrageenan challenge measured after 1 hr
Format: functional
Details: not given

Compound | inhibition in vivo at 50 mg/kg
O=C(O)CCC(=O)/C=C/c1cn(-c2ccccc2)nc1-c1ccc(Cl)cc1 | 3.43%
Cc1ccc(-c2nn(-c3ccccc3)cc2/C=C/C(=O)CCC(=O)O)cc1 | 4.41%
NC(=O)c1ccccc1NC(=O)c1cn(-c2ccccc2)nc1-c1ccccc1 | 17.6%
NC(=O)c1ccccc1NC(=O)c1cn(-c2ccccc2)nc1-c1ccc(Cl)cc1 | 1.96%
NC(=O)c1ccccc1OC(=O)c1cn(-c2ccccc2)nc1-c1ccc(Br)cc1 | 26%
CC(=O)Nc1ccc(OC(=O)c2cn(-c3ccccc3)nc2-c2ccc(Cl)cc2)cc1 | 17.8%
CC(=O)Nc1ccc(OC(=O)c2cn(-c3ccccc3)nc2-c2ccc(C)cc2)cc1 | 2.94%
O=C(O)CCC(=O)/C=C/c1cn(-c2ccccc2)nc1-c1ccccc1 | 27.9%

Tested on: Rattus norvegicus
Experiment: Anti-inflammatory activity in Rattus norvegicus albino (rat) assessed as inhibition of carrageenan-induced paw edema at 10 mg/kg, po administered 30 min before carrageenan challenge measured after 1 hr
Format: functional
Details: not given

Compound | inhibition in vivo at 10 mg/kg
COc1ccc2c(c1)c(CC(=O)O)c(C)n2C(=O)c1ccc(Cl)cc1 [INDOMETHACIN] | 30.9%

Tested on: Rattus norvegicus
Experiment: Anti-inflammatory activity in Rattus norvegicus albino (rat) assessed as inhibition of carrageenan-induced paw edema at 10 mg/kg, po administered 30 min before carrageenan challenge measured after 4 hr
Format: functional
Details: not given

Compound | inhibition in vivo at 10 mg/kg
COc1ccc2c(c1)c(CC(=O)O)c(C)n2C(=O)c1ccc(Cl)cc1 [INDOMETHACIN] | 24.7%

Tested on: Mus musculus
Experiment: Analgesic activity in Mus musculus (mouse) assessed as paw withdrawal latency time at 50 mg/kg, ip after 30 min
Format: functional
Details: route intraperitoneal

Compound | Time
O=C(O)CCC(=O)/C=C/c1cn(-c2ccccc2)nc1-c1ccc(Cl)cc1 | 4.09 s
Cc1ccc(-c2nn(-c3ccccc3)cc2/C=C/C(=O)CCC(=O)O)cc1 | 6.47 s
NC(=O)c1ccccc1NC(=O)c1cn(-c2ccccc2)nc1-c1ccccc1 | 6.29 s
NC(=O)c1ccccc1NC(=O)c1cn(-c2ccccc2)nc1-c1ccc(Cl)cc1 | 4.89 s
NC(=O)c1ccccc1OC(=O)c1cn(-c2ccccc2)nc1-c1ccc(Br)cc1 | 7.4 s
CC(=O)Nc1ccc(OC(=O)c2cn(-c3ccccc3)nc2-c2ccc(Cl)cc2)cc1 | 18.83 s
CC(=O)Nc1ccc(OC(=O)c2cn(-c3ccccc3)nc2-c2ccc(C)cc2)cc1 | 8.32 s
O=C(O)CCC(=O)/C=C/c1cn(-c2ccccc2)nc1-c1ccccc1 | 18.51 s

Tested on: Mus musculus
Experiment: Analgesic activity in Mus musculus (mouse) assessed as paw withdrawal latency time at 10 mg/kg, ip after 30 min
Format: functional
Details: route intraperitoneal

Compound | Time
COc1ccc2c(c1)c(CC(=O)O)c(C)n2C(=O)c1ccc(Cl)cc1 [INDOMETHACIN] | 10.5 s

Tested on: Rattus norvegicus
Experiment: Anti-inflammatory activity in Rattus norvegicus albino (rat) assessed as inhibition of carrageenan-induced paw edema at 10 mg/kg, po administered 30 min before carrageenan challenge measured after 24 hr
Format: functional
Details: not given

Compound | inhibition in vivo at 10 mg/kg
COc1ccc2c(c1)c(CC(=O)O)c(C)n2C(=O)c1ccc(Cl)cc1 [INDOMETHACIN] | 12.9%

Tested on: Rattus norvegicus
Experiment: Anti-inflammatory activity in Rattus norvegicus albino (rat) assessed as inhibition of carrageenan-induced paw edema at 50 mg/kg, po administered 30 min before carrageenan challenge measured after 2 hr
Format: functional
Details: not given

Compound | inhibition in vivo at 50 mg/kg
O=C(O)CCC(=O)/C=C/c1cn(-c2ccccc2)nc1-c1ccc(Cl)cc1 | 10.9%
Cc1ccc(-c2nn(-c3ccccc3)cc2/C=C/C(=O)CCC(=O)O)cc1 | 6.25%
NC(=O)c1ccccc1NC(=O)c1cn(-c2ccccc2)nc1-c1ccccc1 | 13.5%
NC(=O)c1ccccc1NC(=O)c1cn(-c2ccccc2)nc1-c1ccc(Cl)cc1 | 9.38%
NC(=O)c1ccccc1OC(=O)c1cn(-c2ccccc2)nc1-c1ccc(Br)cc1 | 10.4%
CC(=O)Nc1ccc(OC(=O)c2cn(-c3ccccc3)nc2-c2ccc(Cl)cc2)cc1 | 15.6%
CC(=O)Nc1ccc(OC(=O)c2cn(-c3ccccc3)nc2-c2ccc(C)cc2)cc1 | 4.17%
O=C(O)CCC(=O)/C=C/c1cn(-c2ccccc2)nc1-c1ccccc1 | 13.5%

Tested on: Rattus norvegicus
Experiment: Anti-inflammatory activity in Rattus norvegicus albino (rat) assessed as inhibition of carrageenan-induced paw edema at 10 mg/kg, po administered 30 min before carrageenan challenge measured after 3 hr
Format: functional
Details: not given

Compound | inhibition in vivo at 10 mg/kg
COc1ccc2c(c1)c(CC(=O)O)c(C)n2C(=O)c1ccc(Cl)cc1 [INDOMETHACIN] | 21.8%

Tested on: Rattus norvegicus
Experiment: Anti-inflammatory activity in Rattus norvegicus albino (rat) assessed as inhibition of carrageenan-induced paw edema at 50 mg/kg, po administered 30 min before carrageenan challenge measured after 24 hr
Format: functional
Details: not given

Compound | inhibition in vivo at 50 mg/kg
O=C(O)CCC(=O)/C=C/c1cn(-c2ccccc2)nc1-c1ccc(Cl)cc1 | 2.27%
Cc1ccc(-c2nn(-c3ccccc3)cc2/C=C/C(=O)CCC(=O)O)cc1 | 3.79%
NC(=O)c1ccccc1NC(=O)c1cn(-c2ccccc2)nc1-c1ccccc1 | -3.79%
NC(=O)c1ccccc1NC(=O)c1cn(-c2ccccc2)nc1-c1ccc(Cl)cc1 | 15.2%
NC(=O)c1ccccc1OC(=O)c1cn(-c2ccccc2)nc1-c1ccc(Br)cc1 | 3.09%
CC(=O)Nc1ccc(OC(=O)c2cn(-c3ccccc3)nc2-c2ccc(Cl)cc2)cc1 | 3.79%
CC(=O)Nc1ccc(OC(=O)c2cn(-c3ccccc3)nc2-c2ccc(C)cc2)cc1 | 9.09%
O=C(O)CCC(=O)/C=C/c1cn(-c2ccccc2)nc1-c1ccccc1 | 8.33%

Tested on: Rattus norvegicus
Experiment: Anti-inflammatory activity in Rattus norvegicus albino (rat) assessed as inhibition of carrageenan-induced paw edema at 50 mg/kg, po administered 30 min before carrageenan challenge measured after 4 hr
Format: functional
Details: not given

Compound | inhibition in vivo at 50 mg/kg
O=C(O)CCC(=O)/C=C/c1cn(-c2ccccc2)nc1-c1ccc(Cl)cc1 | 8.64%
Cc1ccc(-c2nn(-c3ccccc3)cc2/C=C/C(=O)CCC(=O)O)cc1 | 13%
NC(=O)c1ccccc1NC(=O)c1cn(-c2ccccc2)nc1-c1ccccc1 | 9.88%
NC(=O)c1ccccc1NC(=O)c1cn(-c2ccccc2)nc1-c1ccc(Cl)cc1 | 9.26%
NC(=O)c1ccccc1OC(=O)c1cn(-c2ccccc2)nc1-c1ccc(Br)cc1 | 6.14%
CC(=O)Nc1ccc(OC(=O)c2cn(-c3ccccc3)nc2-c2ccc(Cl)cc2)cc1 | 16.1%
CC(=O)Nc1ccc(OC(=O)c2cn(-c3ccccc3)nc2-c2ccc(C)cc2)cc1 | 3.7%
O=C(O)CCC(=O)/C=C/c1cn(-c2ccccc2)nc1-c1ccccc1 | 23.5%

Tested on: Rattus norvegicus
Experiment: Anti-inflammatory activity in Rattus norvegicus albino (rat) assessed as inhibition of carrageenan-induced paw edema at 10 mg/kg, po administered 30 min before carrageenan challenge measured after 2 hr
Format: functional
Details: not given

Compound | inhibition in vivo at 10 mg/kg
COc1ccc2c(c1)c(CC(=O)O)c(C)n2C(=O)c1ccc(Cl)cc1 [INDOMETHACIN] | 19.3%

Tested on: Rattus norvegicus
Experiment: Anti-inflammatory activity in Rattus norvegicus albino (rat) assessed as inhibition of carrageenan-induced paw edema at 50 mg/kg, po administered 30 min before carrageenan challenge measured after 3 hr
Format: functional
Details: not given

Compound | inhibition in vivo at 50 mg/kg
O=C(O)CCC(=O)/C=C/c1cn(-c2ccccc2)nc1-c1ccc(Cl)cc1 | 6.32%
Cc1ccc(-c2nn(-c3ccccc3)cc2/C=C/C(=O)CCC(=O)O)cc1 | 11.5%
NC(=O)c1ccccc1NC(=O)c1cn(-c2ccccc2)nc1-c1ccccc1 | 14.4%
NC(=O)c1ccccc1NC(=O)c1cn(-c2ccccc2)nc1-c1ccc(Cl)cc1 | 3.45%
NC(=O)c1ccccc1OC(=O)c1cn(-c2ccccc2)nc1-c1ccc(Br)cc1 | 8.6%
CC(=O)Nc1ccc(OC(=O)c2cn(-c3ccccc3)nc2-c2ccc(Cl)cc2)cc1 | 16.7%
CC(=O)Nc1ccc(OC(=O)c2cn(-c3ccccc3)nc2-c2ccc(C)cc2)cc1 | 6.32%
O=C(O)CCC(=O)/C=C/c1cn(-c2ccccc2)nc1-c1ccccc1 | 15.5%
